Data reported in PubChem BioAssay AID2060885 (Molecular Pharmacology Branch, DTP, NCI, 2025).

Test system: NCI-H23 complex spheroids with HUVEC/MSC, viability
Assay: Anticancer human tumor NCI-H23 cell line growth inhibition [RAS];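 also: spheroids exposed to compound for 7 days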;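 as to viability, T/C: 100% = DMSO vehicle control viability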
Settings: for IC50: curve of first compound; for viability, T/C: stronger effect = lower value
Outline: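 Tumour cells grown as complex spheroids with HUVEC endothelial cells and mesenchymal stem cells, treated with RAS pathway inhibitor combinations. Each agent spans half-log steps from near clinical Cmax, or 10 microM where Cmax is unknown.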

[1] = second compound 0.000949 µM, first compound 0.0316 µM
[2] = second compound 0.000949 µM, first compound 0.1 µM
[3] = second compound 0.000949 µM, first compound 0.316 µM
[4] = second compound 0.000949 µM, first compound 1 µM
[5] = second compound 0.000949 µM, first compound 3.16 µM
[6] = second compound 0.000949 µM, first compound 10 µM
[7] = second compound 0.003 µM, first compound 0.0316 µM
[8] = second compound 0.003 µM, first compound 0.1 µM
[9] = second compound 0.003 µM, first compound 0.316 µM
[10] = second compound 0.003 µM, first compound 1 µM
[11] = second compound 0.003 µM, first compound 3.16 µM
[12] = second compound 0.003 µM, first compound 10 µM
[13] = second compound 0.00949 µM, first compound 0.0316 µM
[14] = second compound 0.00949 µM, first compound 0.1 µM
[15] = second compound 0.00949 µM, first compound 0.316 µM
[16] = second compound 0.00949 µM, first compound 1 µM
[17] = second compound 0.00949 µM, first compound 3.16 µM
[18] = second compound 0.00949 µM, first compound 10 µM
[19] = second compound 0.03 µM, first compound 0.0316 µM
[20] = second compound 0.03 µM, first compound 0.1 µM
[21] = second compound 0.03 µM, first compound 0.316 µM
[22] = second compound 0.03 µM, first compound 1 µM
[23] = second compound 0.03 µM, first compound 3.16 µM
[24] = second compound 0.03 µM, first compound 10 µM
[25] = second compound 0.0949 µM, first compound 0.0316 µM
[26] = second compound 0.0949 µM, first compound 0.1 µM
[27] = second compound 0.0949 µM, first compound 0.316 µM
[28] = second compound 0.0949 µM, first compound 1 µM
[29] = second compound 0.0949 µM, first compound 3.16 µM
[30] = second compound 0.0949 µM, first compound 10 µM
[31] = second compound 0.3 µM, first compound 0.0316 µM
[32] = second compound 0.3 µM, first compound 0.1 µM
[33] = second compound 0.3 µM, first compound 0.316 µM
[34] = second compound 0.3 µM, first compound 1 µM
[35] = second compound 0.3 µM, first compound 3.16 µM
[36] = second compound 0.3 µM, first compound 10 µM

CC1(O)CCCC1n1c(=O)c(C(F)F)cc2cnc(NC3CCN(S(C)(=O)=O)CC3)nc21 (stereo unspecified) + CCn1c(-c2cc(N3CCN(C)CC3)cnc2C(C)OC)c2c3cc(ccc31)-c1csc(n1)CC(NC(=O)C1CC1C)C(=O)N1CCCC(N1)C(=O)OCC(C)(C)C2
IC50 (second compound 0.000949 µM): < 0.0316 µM | IC50 (second compound 0.003 µM): < 0.0316 µM | IC50 (second compound 0.00949 µM): < 0.0316 µM | IC50 (second compound 0.03 µM): < 0.0316 µM | IC50 (second compound 0.0949 µM): < 0.0316 µM | IC50 (second compound 0.3 µM): < 0.0316 µM | viability, T/C [1]: 33.9% | viability, T/C [2]: 26.3% | viability, T/C [3]: 17.7% | viability, T/C [4]: 25.8% | viability, T/C [5]: 25.5% | viability, T/C [6]: 2.68% | viability, T/C [7]: 31.6% | viability, T/C [8]: 18.7% | viability, T/C [9]: 15.9% | viability, T/C [10]: 19.1% | viability, T/C [11]: 24% | viability, T/C [12]: 1.43% | viability, T/C [13]: 32% | viability, T/C [14]: 15.7% | viability, T/C [15]: 13.9% | viability, T/C [16]: 17.6% | viability, T/C [17]: 17.9% | viability, T/C [18]: 1.78% | viability, T/C [19]: 20.8% | viability, T/C [20]: 18% | viability, T/C [21]: 15% | viability, T/C [22]: 17.1% | viability, T/C [23]: 14.5% | viability, T/C [24]: 2.47% | viability, T/C [25]: 17.3% | viability, T/C [26]: 15.4% | viability, T/C [27]: 13.4% | viability, T/C [28]: 14.1% | viability, T/C [29]: 12.1% | viability, T/C [30]: 2.66% | viability, T/C [31]: 18.7% | viability, T/C [32]: 14.8% | viability, T/C [33]: 15.1% | viability, T/C [34]: 12.8% | viability, T/C [35]: 11.8% | viability, T/C [36]: 2.94%

CCC(CC)c1cc(NC2CCC(N)C2)n2nccc2n1 (stereo unspecified) + CCn1c(-c2cc(N3CCN(C)CC3)cnc2C(C)OC)c2c3cc(ccc31)-c1csc(n1)CC(NC(=O)C1CC1C)C(=O)N1CCCC(N1)C(=O)OCC(C)(C)C2
IC50 (second compound 0.000949 µM): < 0.0316 µM | IC50 (second compound 0.003 µM): < 0.0316 µM | IC50 (second compound 0.00949 µM): < 0.0316 µM | IC50 (second compound 0.03 µM): < 0.0316 µM | IC50 (second compound 0.0949 µM): < 0.0316 µM | IC50 (second compound 0.3 µM): < 0.0316 µM | viability, T/C [1]: 46.5% | viability, T/C [2]: 50.7% | viability, T/C [3]: 40.9% | viability, T/C [4]: 41.2% | viability, T/C [5]: 2.33% | viability, T/C [6]: 0.49% | viability, T/C [7]: 37.7% | viability, T/C [8]: 33.8% | viability, T/C [9]: 34% | viability, T/C [10]: 36.4% | viability, T/C [11]: 2.67% | viability, T/C [12]: 0.37% | viability, T/C [13]: 36.3% | viability, T/C [14]: 33.7% | viability, T/C [15]: 34.2% | viability, T/C [16]: 35.7% | viability, T/C [17]: 1.63% | viability, T/C [18]: 0.42% | viability, T/C [19]: 30.1% | viability, T/C [20]: 24.9% | viability, T/C [21]: 31.1% | viability, T/C [22]: 28.3% | viability, T/C [23]: 0.59% | viability, T/C [24]: 0.54% | viability, T/C [25]: 22.9% | viability, T/C [26]: 23.2% | viability, T/C [27]: 24.7% | viability, T/C [28]: 25.4% | viability, T/C [29]: 0.87% | viability, T/C [30]: 0.64% | viability, T/C [31]: 19% | viability, T/C [32]: 20.5% | viability, T/C [33]: 22.4% | viability, T/C [34]: 19% | viability, T/C [35]: 1.45% | viability, T/C [36]: 0.47%

CCN1CCN(Cc2ccc(Nc3ncc(F)c(-c4cc(F)c5nc(C)n(C(C)C)c5c4)n3)nc2)CC1 + CCn1c(-c2cc(N3CCN(C)CC3)cnc2C(C)OC)c2c3cc(ccc31)-c1csc(n1)CC(NC(=O)C1CC1C)C(=O)N1CCCC(N1)C(=O)OCC(C)(C)C2
IC50 (second compound 0.000949 µM): < 0.00316 µM | IC50 (second compound 0.003 µM): < 0.00316 µM | IC50 (second compound 0.00949 µM): < 0.00316 µM | IC50 (second compound 0.03 µM): < 0.00316 µM | IC50 (second compound 0.0949 µM): < 0.00316 µM | IC50 (second compound 0.3 µM): < 0.00316 µM | viability, T/C (second compound 0.000949 µM, first compound 0.00316 µM): 37.3% | viability, T/C (second compound 0.000949 µM, first compound 0.01 µM): 32.9% | viability, T/C [1]: 18.3% | viability, T/C [2]: 20.1% | viability, T/C [3]: 17.9% | viability, T/C [4]: 12.9% | viability, T/C (second compound 0.003 µM, first compound 0.00316 µM): 29.6% | viability, T/C (second compound 0.003 µM, first compound 0.01 µM): 22.1% | viability, T/C [7]: 16% | viability, T/C [8]: 16.8% | viability, T/C [9]: 14.3% | viability, T/C [10]: 12.3% | viability, T/C (second compound 0.00949 µM, first compound 0.00316 µM): 29% | viability, T/C (second compound 0.00949 µM, first compound 0.01 µM): 21.5% | viability, T/C [13]: 17.2% | viability, T/C [14]: 16.2% | viability, T/C [15]: 12.9% | viability, T/C [16]: 10.4% | viability, T/C (second compound 0.03 µM, first compound 0.00316 µM): 23.1% | viability, T/C (second compound 0.03 µM, first compound 0.01 µM): 17.9% | viability, T/C [19]: 18.9% | viability, T/C [20]: 14% | viability, T/C [21]: 9.41% | viability, T/C [22]: 14.5% | viability, T/C (second compound 0.0949 µM, first compound 0.00316 µM): 16.1% | viability, T/C (second compound 0.0949 µM, first compound 0.01 µM): 16% | viability, T/C [25]: 13.7% | viability, T/C [26]: 10.7% | viability, T/C [27]: 10.1% | viability, T/C [28]: 13.1% | viability, T/C (second compound 0.3 µM, first compound 0.00316 µM): 14.8% | viability, T/C (second compound 0.3 µM, first compound 0.01 µM): 16.5% | viability, T/C [31]: 12.8% | viability, T/C [32]: 10.4% | viability, T/C [33]: 10.6% | viability, T/C [34]: 12.6%
